Measured values as given in ChEMBL document CHEMBL4765237, “Structural optimization and structure-activity relationship studies of N-phenyl-7,8-dihydro-6H-pyrimido[5,4-b][1,4]oxazin-4-amine derivatives as a new class of inhibitors of RET and its drug resistance mutants” (Eur J Med Chem, 2018).
Calls of active or inactive are those of the source. No cut-off for these calls is given here.

System: not listed separately
Test: Growth inhibition of […] NIH3T3 cells incubated for 3 days by MTT assay
Type: functional
Settings: NIH3T3, 72 h; time 3 day

Structure (SMILES) | GI50 [nM]
CNC(=O)c1cc(Oc2ccc(NC(=O)Nc3ccc(Cl)c(C(F)(F)F)c3)cc2)ccn1 [SORAFENIB] | > 10000
COc1cc2nccc(Oc3ccc(NC(=O)C4(C(=O)Nc5ccc(F)cc5)CC4)cc3)c2cc1OC [CABOZANTINIB] | > 10000
O=C(Nc1ccc(Br)cc1)Nc1ccc(Nc2ncnc3c2OCCN3)cc1 | > 10000
CN1CCCOc2c(Nc3ccc(NC(=O)Nc4cc(C(C)(C)C)on4)cc3)ncnc21 | > 10000
CC(C)(C)c1cc(NC(=O)Nc2ccc(Nc3ncnc4c3OCCN4)cc2F)no1 | > 10000
COc1cc(NC(=O)Nc2cc(C(C)(C)C)on2)ccc1Nc1ncnc2c1OCCN2 | > 10000
Cc1nc(Nc2ncnc3c2OCCN3)ccc1NC(=O)Nc1cc(C(C)(C)C)on1 | > 10000

System: BaF3
Test: Growth inhibition of mouse BaF3 cells incubated for 3 days by MTT assay
Type: functional
Settings: BaF3, 72 h, time 3 day

Structure (SMILES) | GI50 [nM]
CNC(=O)c1cc(Oc2ccc(NC(=O)Nc3ccc(Cl)c(C(F)(F)F)c3)cc2)ccn1 [SORAFENIB] | 6360
COc1cc2nccc(Oc3ccc(NC(=O)C4(C(=O)Nc5ccc(F)cc5)CC4)cc3)c2cc1OC [CABOZANTINIB] | 9360
O=C(Nc1ccc(Br)cc1)Nc1ccc(Nc2ncnc3c2OCCN3)cc1 | 10000
CN1CCCOc2c(Nc3ccc(NC(=O)Nc4cc(C(C)(C)C)on4)cc3)ncnc21 | > 10000
CC(C)(C)c1cc(NC(=O)Nc2ccc(Nc3ncnc4c3OCCN4)cc2F)no1 | > 10000
COc1cc(NC(=O)Nc2cc(C(C)(C)C)on2)ccc1Nc1ncnc2c1OCCN2 | > 10000
Cc1nc(Nc2ncnc3c2OCCN3)ccc1NC(=O)Nc1cc(C(C)(C)C)on1 | > 10000

System: not listed separately
Test: Toxicity in NOD-SCID mouse xenografted with […] cells harboring RET C634Y mutant assessed as reduction in body weight at 30 mg/kg, po administered for 18 days and measured on day 18
Type: organism-based
Settings: in vivo, 432 h, time 18 day

Structure (SMILES) | Activity
CNC(=O)c1cc(Oc2ccc(NC(=O)Nc3ccc(Cl)c(C(F)(F)F)c3)cc2)ccn1 [SORAFENIB] | Non-Toxic
COc1cc2nccc(Oc3ccc(NC(=O)C4(C(=O)Nc5ccc(F)cc5)CC4)cc3)c2cc1OC [CABOZANTINIB] | Non-Toxic

System: not listed separately
Test: Growth inhibition of […] NIH3T3 cells harboring RET C634Y mutant incubated for 3 days by MTT assay
Type: functional
Settings: NIH3T3, 72 h; time 3 day

Structure (SMILES) | GI50 [nM]
CNC(=O)c1cc(Oc2ccc(NC(=O)Nc3ccc(Cl)c(C(F)(F)F)c3)cc2)ccn1 [SORAFENIB] | 320
COc1cc2nccc(Oc3ccc(NC(=O)C4(C(=O)Nc5ccc(F)cc5)CC4)cc3)c2cc1OC [CABOZANTINIB] | 100
O=C(Nc1ccc(Br)cc1)Nc1ccc(Nc2ncnc3c2OCCN3)cc1 | 8920
CN1CCCOc2c(Nc3ccc(NC(=O)Nc4cc(C(C)(C)C)on4)cc3)ncnc21 | 3580
CC(C)(C)c1cc(NC(=O)Nc2ccc(Nc3ncnc4c3OCCN4)cc2F)no1 | 130
COc1cc(NC(=O)Nc2cc(C(C)(C)C)on2)ccc1Nc1ncnc2c1OCCN2 | 2700
Cc1nc(Nc2ncnc3c2OCCN3)ccc1NC(=O)Nc1cc(C(C)(C)C)on1 | 10000

System: BaF3
Type: functional
Settings: Mus musculus, BaF3, 72 h; time 3 day

Structure (SMILES) | GI50 [nM]
CNC(=O)c1cc(Oc2ccc(NC(=O)Nc3ccc(Cl)c(C(F)(F)F)c3)cc2)ccn1 [SORAFENIB] | 1800
COc1cc2nccc(Oc3ccc(NC(=O)C4(C(=O)Nc5ccc(F)cc5)CC4)cc3)c2cc1OC [CABOZANTINIB] | 1530
O=C(Nc1ccc(Br)cc1)Nc1ccc(Nc2ncnc3c2OCCN3)cc1 | > 10000
CN1CCCOc2c(Nc3ccc(NC(=O)Nc4cc(C(C)(C)C)on4)cc3)ncnc21 | > 10000
CC(C)(C)c1cc(NC(=O)Nc2ccc(Nc3ncnc4c3OCCN4)cc2F)no1 | 5230
COc1cc(NC(=O)Nc2cc(C(C)(C)C)on2)ccc1Nc1ncnc2c1OCCN2 | > 10000
Cc1nc(Nc2ncnc3c2OCCN3)ccc1NC(=O)Nc1cc(C(C)(C)C)on1 | > 10000

System: BaF3
Test: Growth inhibition of mouse BaF3 cells harboring RET M918T mutant incubated for 3 days by MTT assay
Type: functional
Settings: BaF3, 72 h, time 3 day

Structure (SMILES) | GI50 [nM]
CNC(=O)c1cc(Oc2ccc(NC(=O)Nc3ccc(Cl)c(C(F)(F)F)c3)cc2)ccn1 [SORAFENIB] | 1280
COc1cc2nccc(Oc3ccc(NC(=O)C4(C(=O)Nc5ccc(F)cc5)CC4)cc3)c2cc1OC [CABOZANTINIB] | 1450
O=C(Nc1ccc(Br)cc1)Nc1ccc(Nc2ncnc3c2OCCN3)cc1 | > 10000
CN1CCCOc2c(Nc3ccc(NC(=O)Nc4cc(C(C)(C)C)on4)cc3)ncnc21 | > 10000
CC(C)(C)c1cc(NC(=O)Nc2ccc(Nc3ncnc4c3OCCN4)cc2F)no1 | 590
COc1cc(NC(=O)Nc2cc(C(C)(C)C)on2)ccc1Nc1ncnc2c1OCCN2 | > 10000
Cc1nc(Nc2ncnc3c2OCCN3)ccc1NC(=O)Nc1cc(C(C)(C)C)on1 | > 10000

System: BaF3
Test: Growth inhibition of mouse BaF3 cells harboring RET V804M mutant incubated for 3 days by MTT assay
Type: functional
Settings: BaF3, 72 h, time 3 day

Structure (SMILES) | GI50 [nM]
CNC(=O)c1cc(Oc2ccc(NC(=O)Nc3ccc(Cl)c(C(F)(F)F)c3)cc2)ccn1 [SORAFENIB] | 1100
COc1cc2nccc(Oc3ccc(NC(=O)C4(C(=O)Nc5ccc(F)cc5)CC4)cc3)c2cc1OC [CABOZANTINIB] | 2800
O=C(Nc1ccc(Br)cc1)Nc1ccc(Nc2ncnc3c2OCCN3)cc1 | > 10000
CN1CCCOc2c(Nc3ccc(NC(=O)Nc4cc(C(C)(C)C)on4)cc3)ncnc21 | > 10000
CC(C)(C)c1cc(NC(=O)Nc2ccc(Nc3ncnc4c3OCCN4)cc2F)no1 | 4720
COc1cc(NC(=O)Nc2cc(C(C)(C)C)on2)ccc1Nc1ncnc2c1OCCN2 | > 10000
Cc1nc(Nc2ncnc3c2OCCN3)ccc1NC(=O)Nc1cc(C(C)(C)C)on1 | > 10000

System: BaF3
Test: Growth inhibition of mouse BaF3 cells over expressing wild type RET incubated for 3 days by MTT assay
Type: functional
Settings: BaF3, 72 h, time 3 day

Structure (SMILES) | GI50 [nM]
CNC(=O)c1cc(Oc2ccc(NC(=O)Nc3ccc(Cl)c(C(F)(F)F)c3)cc2)ccn1 [SORAFENIB] | 230
COc1cc2nccc(Oc3ccc(NC(=O)C4(C(=O)Nc5ccc(F)cc5)CC4)cc3)c2cc1OC [CABOZANTINIB] | 150
O=C(Nc1ccc(Br)cc1)Nc1ccc(Nc2ncnc3c2OCCN3)cc1 | > 10000
CN1CCCOc2c(Nc3ccc(NC(=O)Nc4cc(C(C)(C)C)on4)cc3)ncnc21 | 3890
CC(C)(C)c1cc(NC(=O)Nc2ccc(Nc3ncnc4c3OCCN4)cc2F)no1 | 90
COc1cc(NC(=O)Nc2cc(C(C)(C)C)on2)ccc1Nc1ncnc2c1OCCN2 | 4700
Cc1nc(Nc2ncnc3c2OCCN3)ccc1NC(=O)Nc1cc(C(C)(C)C)on1 | > 10000

System: not listed separately
Test: Growth inhibition of human TT cells incubated for 10 days by MTT assay
Type: functional
Settings: 240 h, time 10 day

Structure (SMILES) | GI50 [nM]
CNC(=O)c1cc(Oc2ccc(NC(=O)Nc3ccc(Cl)c(C(F)(F)F)c3)cc2)ccn1 [SORAFENIB] | 230
COc1cc2nccc(Oc3ccc(NC(=O)C4(C(=O)Nc5ccc(F)cc5)CC4)cc3)c2cc1OC [CABOZANTINIB] | 200
O=C(Nc1ccc(Br)cc1)Nc1ccc(Nc2ncnc3c2OCCN3)cc1 | 10000
CN1CCCOc2c(Nc3ccc(NC(=O)Nc4cc(C(C)(C)C)on4)cc3)ncnc21 | 1600
CC(C)(C)c1cc(NC(=O)Nc2ccc(Nc3ncnc4c3OCCN4)cc2F)no1 | 80
COc1cc(NC(=O)Nc2cc(C(C)(C)C)on2)ccc1Nc1ncnc2c1OCCN2 | 3030
Cc1nc(Nc2ncnc3c2OCCN3)ccc1NC(=O)Nc1cc(C(C)(C)C)on1 | > 10000

Target: Proto-oncogene tyrosine-protein kinase receptor Ret (Homo sapiens, UniProt P07949, V804M)
Settings: not given

Sequence of Proto-oncogene tyrosine-protein kinase receptor Ret (Homo sapiens, UniProt P07949, V804M) (P07949 29-1114 V804M limits assumed): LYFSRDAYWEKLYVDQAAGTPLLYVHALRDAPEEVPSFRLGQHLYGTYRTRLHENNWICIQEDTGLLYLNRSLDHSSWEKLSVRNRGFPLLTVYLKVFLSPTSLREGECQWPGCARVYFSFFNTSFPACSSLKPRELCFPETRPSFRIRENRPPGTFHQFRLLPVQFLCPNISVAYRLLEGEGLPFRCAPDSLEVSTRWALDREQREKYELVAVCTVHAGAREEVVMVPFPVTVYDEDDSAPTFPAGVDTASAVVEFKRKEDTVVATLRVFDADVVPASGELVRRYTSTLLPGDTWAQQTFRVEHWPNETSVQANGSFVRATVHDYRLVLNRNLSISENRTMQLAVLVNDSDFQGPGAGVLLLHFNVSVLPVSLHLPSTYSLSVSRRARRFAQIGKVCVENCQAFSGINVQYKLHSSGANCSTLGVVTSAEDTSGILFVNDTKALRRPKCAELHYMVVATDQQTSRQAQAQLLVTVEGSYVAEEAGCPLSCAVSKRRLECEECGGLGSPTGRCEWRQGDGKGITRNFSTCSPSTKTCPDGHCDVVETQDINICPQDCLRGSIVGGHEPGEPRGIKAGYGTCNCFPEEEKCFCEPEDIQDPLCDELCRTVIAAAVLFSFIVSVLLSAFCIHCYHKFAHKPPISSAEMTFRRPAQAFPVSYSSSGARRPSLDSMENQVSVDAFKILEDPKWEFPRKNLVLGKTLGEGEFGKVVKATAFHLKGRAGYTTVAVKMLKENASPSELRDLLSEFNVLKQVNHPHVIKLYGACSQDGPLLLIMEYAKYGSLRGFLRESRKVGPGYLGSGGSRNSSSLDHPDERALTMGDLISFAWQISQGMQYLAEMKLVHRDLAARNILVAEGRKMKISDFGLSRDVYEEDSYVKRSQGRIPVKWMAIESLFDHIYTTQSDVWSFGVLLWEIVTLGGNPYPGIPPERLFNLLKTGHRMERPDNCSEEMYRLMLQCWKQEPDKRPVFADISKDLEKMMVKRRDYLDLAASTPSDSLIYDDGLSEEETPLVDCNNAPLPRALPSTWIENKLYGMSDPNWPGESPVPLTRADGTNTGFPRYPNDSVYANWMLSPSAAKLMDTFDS

Structure (SMILES) | IC50 [nM]
O=C(Nc1ccc(Br)cc1)Nc1ccc(Nc2ncnc3c2OCCN3)cc1 | 2350
CN1CCCOc2c(Nc3ccc(NC(=O)Nc4cc(C(C)(C)C)on4)cc3)ncnc21 | 716
CC(C)(C)c1cc(NC(=O)Nc2ccc(Nc3ncnc4c3OCCN4)cc2F)no1 | 57
COc1cc(NC(=O)Nc2cc(C(C)(C)C)on2)ccc1Nc1ncnc2c1OCCN2 | 33
Cc1nc(Nc2ncnc3c2OCCN3)ccc1NC(=O)Nc1cc(C(C)(C)C)on1 | 1110

Target: Proto-oncogene tyrosine-protein kinase receptor Ret (Homo sapiens, UniProt P07949)
Settings: not given

Sequence of Proto-oncogene tyrosine-protein kinase receptor Ret (Homo sapiens, UniProt P07949) (P07949 whole entry): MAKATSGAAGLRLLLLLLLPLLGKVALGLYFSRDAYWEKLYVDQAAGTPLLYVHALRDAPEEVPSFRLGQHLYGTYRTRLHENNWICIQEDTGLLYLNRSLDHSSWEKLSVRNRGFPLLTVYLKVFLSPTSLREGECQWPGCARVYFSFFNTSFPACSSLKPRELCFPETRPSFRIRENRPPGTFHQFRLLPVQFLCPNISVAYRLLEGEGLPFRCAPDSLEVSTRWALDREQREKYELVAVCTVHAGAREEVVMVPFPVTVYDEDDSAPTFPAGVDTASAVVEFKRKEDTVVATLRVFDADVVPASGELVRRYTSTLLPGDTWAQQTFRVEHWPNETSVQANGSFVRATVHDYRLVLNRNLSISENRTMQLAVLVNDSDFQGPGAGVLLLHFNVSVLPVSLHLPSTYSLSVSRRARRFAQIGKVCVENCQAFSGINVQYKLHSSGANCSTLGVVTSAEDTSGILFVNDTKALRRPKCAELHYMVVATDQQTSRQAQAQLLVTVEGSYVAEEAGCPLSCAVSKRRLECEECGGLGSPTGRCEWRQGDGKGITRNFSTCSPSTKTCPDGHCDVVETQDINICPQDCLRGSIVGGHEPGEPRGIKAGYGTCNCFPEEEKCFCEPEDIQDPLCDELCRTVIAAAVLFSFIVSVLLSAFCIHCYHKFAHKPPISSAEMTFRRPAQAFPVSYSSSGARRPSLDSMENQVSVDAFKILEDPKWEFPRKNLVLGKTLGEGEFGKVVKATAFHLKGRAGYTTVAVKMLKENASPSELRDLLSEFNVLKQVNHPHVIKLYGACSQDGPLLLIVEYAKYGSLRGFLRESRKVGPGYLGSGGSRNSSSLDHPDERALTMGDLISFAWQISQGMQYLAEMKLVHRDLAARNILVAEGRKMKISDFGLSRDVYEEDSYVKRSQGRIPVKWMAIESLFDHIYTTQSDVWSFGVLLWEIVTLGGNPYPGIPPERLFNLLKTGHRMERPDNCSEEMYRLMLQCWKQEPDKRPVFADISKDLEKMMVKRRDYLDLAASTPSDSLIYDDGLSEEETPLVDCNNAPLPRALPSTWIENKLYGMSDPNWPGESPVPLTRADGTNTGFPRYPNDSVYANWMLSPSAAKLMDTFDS

Structure (SMILES) | IC50 [nM]
O=C(Nc1ccc(Br)cc1)Nc1ccc(Nc2ncnc3c2OCCN3)cc1 | 2220
CN1CCCOc2c(Nc3ccc(NC(=O)Nc4cc(C(C)(C)C)on4)cc3)ncnc21 | 322
CC(C)(C)c1cc(NC(=O)Nc2ccc(Nc3ncnc4c3OCCN4)cc2F)no1 | 10
COc1cc(NC(=O)Nc2cc(C(C)(C)C)on2)ccc1Nc1ncnc2c1OCCN2 | 22
Cc1nc(Nc2ncnc3c2OCCN3)ccc1NC(=O)Nc1cc(C(C)(C)C)on1 | 781

System: NIH3T3
Settings: Homo sapiens, dose 30.0 mg/kg, time 18.0 day

Structure (SMILES) | TGI
CNC(=O)c1cc(Oc2ccc(NC(=O)Nc3ccc(Cl)c(C(F)(F)F)c3)cc2)ccn1 [SORAFENIB] | Active
COc1cc2nccc(Oc3ccc(NC(=O)C4(C(=O)Nc5ccc(F)cc5)CC4)cc3)c2cc1OC [CABOZANTINIB] | Active
